O=C(Nc1ccc([N+](=O)[O-])cc1Cl)c1cc(Cl)ccc1O
solubility (mole fraction)
Details	in DMSO	in ethanol	in isopropanol	in methanol	in n-butanol	in water
298.15 K	0.000152	0.000166	0.000242	7.78e-05	0.000305	3.27e-07
303.15 K	0.000161	0.000183	0.000274	7.69e-05	0.000309	4.12e-07
308.15 K	0.000165	0.000186	0.000279	6.9e-05	0.000345	4.19e-07
313.15 K	0.000167	0.000186	0.000304	6.75e-05	0.000347	4.27e-07
318.15 K	0.00017	0.000199	0.000345	5.9e-05	0.000402	4.74e-07
323.15 K	0.000205	0.0002	0.000348	5.35e-05	0.000591	6.04e-07

Details	solubility (mole fraction)
in PEG-200, 298.15 K	0.000527
in PEG-200, 303.15 K	0.000556
in PEG-200, 308.15 K	0.000604
in PEG-200, 313.15 K	0.000666
in PEG-200, 318.15 K	0.000686
in PEG-200, 323.15 K	0.00079
in PEG-400, 298.15 K	0.0011
in PEG-400, 303.15 K	0.00129
in PEG-400, 308.15 K	0.00138
in PEG-400, 313.15 K	0.00159
in PEG-400, 318.15 K	0.00168
in PEG-400, 323.15 K	0.00193

From BigSolDB 2.1
